{"source": "patent US20080200563A1", "about": "“Use of Compounds Containing Thiol Groups as Efflux Pump Inhibitors” (ThioMatrix Forschungs- und Beratungs- GmbH, priority 2004, published 2008)", "molecular_target": "T1, efflux pump P-glycoprotein (Cavia porcellus, UniProt H0VLE6)", "T1 construct": "The small intestine of guinea pigs was immediately removed after sacrificing animals, cut lengthwise and rinsed; from tissue; host or cells: guinea pig small intestinal mucosa mounted in Ussing chambers", "T1 sequence (H0VLE6 1-1243)": "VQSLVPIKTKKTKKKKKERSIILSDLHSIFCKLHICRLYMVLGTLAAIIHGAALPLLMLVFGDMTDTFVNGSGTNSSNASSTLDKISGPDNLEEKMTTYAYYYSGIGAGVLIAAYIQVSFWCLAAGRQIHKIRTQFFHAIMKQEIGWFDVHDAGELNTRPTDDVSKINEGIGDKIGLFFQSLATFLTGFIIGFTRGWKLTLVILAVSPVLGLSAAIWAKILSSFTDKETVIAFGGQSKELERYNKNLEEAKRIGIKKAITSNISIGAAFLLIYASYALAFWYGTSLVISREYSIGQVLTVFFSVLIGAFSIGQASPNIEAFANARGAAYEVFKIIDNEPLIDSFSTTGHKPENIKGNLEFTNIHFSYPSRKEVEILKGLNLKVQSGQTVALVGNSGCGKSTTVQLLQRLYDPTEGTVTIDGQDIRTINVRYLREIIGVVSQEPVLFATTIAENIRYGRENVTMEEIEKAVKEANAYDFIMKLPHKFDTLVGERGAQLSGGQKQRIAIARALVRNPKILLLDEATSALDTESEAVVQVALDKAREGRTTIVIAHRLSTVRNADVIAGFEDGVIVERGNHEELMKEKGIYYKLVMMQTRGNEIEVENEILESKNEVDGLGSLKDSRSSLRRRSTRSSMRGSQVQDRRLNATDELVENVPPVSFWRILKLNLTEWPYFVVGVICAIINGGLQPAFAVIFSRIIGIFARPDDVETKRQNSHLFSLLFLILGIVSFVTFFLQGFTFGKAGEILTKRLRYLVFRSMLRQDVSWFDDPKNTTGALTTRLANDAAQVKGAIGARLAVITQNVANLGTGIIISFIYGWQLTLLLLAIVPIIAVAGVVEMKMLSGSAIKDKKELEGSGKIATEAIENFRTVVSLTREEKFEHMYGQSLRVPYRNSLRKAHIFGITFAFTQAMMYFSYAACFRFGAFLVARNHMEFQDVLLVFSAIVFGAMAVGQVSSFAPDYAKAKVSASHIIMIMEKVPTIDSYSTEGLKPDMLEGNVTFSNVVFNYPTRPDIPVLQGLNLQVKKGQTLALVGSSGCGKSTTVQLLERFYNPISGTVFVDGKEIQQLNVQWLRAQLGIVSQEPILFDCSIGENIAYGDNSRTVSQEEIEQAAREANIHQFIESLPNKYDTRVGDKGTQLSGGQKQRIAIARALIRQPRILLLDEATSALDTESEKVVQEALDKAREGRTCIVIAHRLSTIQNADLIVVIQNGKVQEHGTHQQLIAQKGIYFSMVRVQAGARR", "test": "Permeation studies with rhodamine 123 across guinea pig small intestinal mucosa in Ussing chambers (efflux pump inhibition)", "format": "in vitro ADME", "details": "0.5% (m/v)", "description": "The small intestine of guinea pigs was immediately removed after sacrificing animals, cut lengthwise and rinsed with sterile 0.9% sodium chloride solution. Thereafter it was mounted in Ussing chambers. The incubation medium was a 50 mM Bis-Tris (bis[2-hydroxyethyl]imino-tris[hydroxymethyl]methane) pH 6.0 buffer containing 250 mM NaCl, 2.6 mM MgSO4, 10 mM KCl, 40 mM glucose and 50 mM NaHCO3. […] J Pharm Sei. […] At predetermined time points samples were withdrawn from the acceptor chamber—facing to the basolateral site of the mucosa and replaced by fresh incubation medium. […] In addition all permeation studies described above were also performed with the mucosa being mounted in the opposite direction, so that the donor compartment is facing the basolateral site of the mucosa. In parallel, the same experiments were performed with the only difference that the donor- and acceptor compartment contained additionally glutathione in a concentration of 0.5%.\nIn order to compare the inhibitory effect of glutathione and/or polythiol-compounds with well-known inhibitors on efflux pumps of the gastrointestinal mucosa, they were tested in parallel."}
{"smiles": "N[C@@H](CCC(=O)N[C@@H](CS)C(=O)NCC(=O)O)C(=O)O", "note": "[Glutathione, glutathione]", "values": [{"measurement": "effect on rhodamine permeation at 4° C. compared with 37° C.", "setting": "4° C.", "result": "dramatically lower effect"}, {"measurement": "permeation of rhodamine in the absorptive direction in the presence of the compound", "setting": "37° C., apical to basolateral", "result": "significantly improved"}, {"measurement": "permeation of rhodamine in the secretory direction in the presence of the compound", "setting": "37° C., basolateral to apical", "result": "significantly reduced"}, {"measurement": "efflux pump inhibitory effect", "setting": "37° C., p<0.05, rhodamine 123", "result": "statistically significant"}]}
